We go through 15 compounds from patent US8435549B2, “Halogen alkoxy spirocyclic tetramic and tetronic acid derivatives” (Bayer Cropscience AG, priority 2007, dated 2013).

Data set [1] has as its system green peach aphid (Myzus persicae). Description: Enhancement of activity by ammonium/phosphonium salts, Myzus persicae test. Type of data set: in vivo. The following applies: Myzus persicae on bell pepper, active compound 4 ppm. How it is done:
To produce a suitable preparation of active compound, 1 part by weight of active compound is mixed with the stated amounts of solvent and emulsifier, and the concentrate is diluted with water to the desired concentration. For application with ammonium or phosphonium salts, these are added to the spray liquor in a concentration of 1000 ppm.
(§1) Bell pepper plants (Capsicum annuum) which are heavily infested by the green peach aphid (Myzus persicae) are treated by spraying to runoff point with the active compound preparation of the desired concentration. After the desired period of time, the kill in % is determined. 100% means that all animals have been killed; 0% means that none of the animals have been killed.

Data set [2] relates to cotton aphid (Aphis gossypii). Description: Enhancement of activity by ammonium/phosphonium salts in combination with penetrants, Aphis gossypii test. In kind it is in vivo. How it is done: To produce a suitable preparation of active compound, 1 part by weight of active compound is mixed with the stated amounts of solvent and emulsifier, and the concentrate is diluted with emulsifier-containing water to the desired concentration. For application with ammonium or phosphonium salts and penetrants (rapeseed oil methyl esters 500 EW) these are added to the spray liquor in each case in a concentration of 1000 ppm.
(§2) Cotton plants (Gossypium hirsutum) which are heavily infested by the cotton aphid (Aphis gossypii) are treated by spraying to runoff point with the active compound preparation of the desired concentration.
(§3) After the desired period of time, the kill in % is determined. 100% means that all the aphids have been killed; 0% means that none of the aphids have been killed.

The next data set concerns crop plants. As to the kind of experiment: Use of safeners: plant compatibility of test substances in crop plants. Type of data set: in vivo. As for the experimental part:
• Seeds of monocotyledonous and dicotyledonous weed and crop plants are placed in sandy loam in wood fiber pots, covered with soil and cultivated in a greenhouse under good growth conditions. 2 to 3 weeks after sowing, the test plants are treated at the one-leaf stage. The test compounds, formulated as wettable powders (WP) are then, with a water application rate of 600 l/ha (converted), with 0.2% of wetting agent added, sprayed at various dosages onto the green parts of the plants. After the test plants have been kept in the greenhouse under optimum growth conditions for about 3 weeks, the activity of the preparations is rated visually in comparison to untreated controls (herbicidal activity in percent: 100% activity=the plants have died, 0% activity=like control plants). • In addition to the compounds mentioned above, the following compounds show a post-emergence action of ≧80% against Echinocloa crus-galli, Lolium multiflorum and Setaria viridis at 80 g/ha: I-1-a-2, I-1-a-4, I-1-a-5, I-1-a-7, I-1-a-9, I-1-a-12, I-1-a-13, I-1-a-14, I-1-b-3.
Use of Safeners: • If it is additionally to be tested as to whether safeners can improve the plant compatibility of test substances in the case of crop plants, the following options are used for applying the safeners: • seeds of the crop plants are, before sowing, dressed with the safener substance (the amount of safener stated in percent, based on the weight of the seed) • before application of the test substances, the crop plants are sprayed with the safener at a certain application rate per hectare (usually 1 day before the application of the test substances) • the safener is applied together with the test substance as a tank mix (the amount of safener stated in g/ha or as a ratio, based on the herbicide).
• Application of the safener 1 day prior to the herbicide

The test system of data set [3] is cotton aphid (Aphis gossypii). Description: Enhancement of activity by ammonium/phosphonium salts, Aphis gossypii test. In kind it is in vivo. The conditions noted are these: Aphis gossypii on cotton, active compound 4 ppm. How it is done: To produce a suitable preparation of active compound, 1 part by weight of active compound is mixed with the stated amounts of solvent and emulsifier, and the concentrate is diluted with emulsifier-containing water to the desired concentration. For application with ammonium or phosphonium salts, these are added to the spray liquor in a concentration of 1000 ppm.
as §2, §3

The subject of data set [4] is green peach aphid (Myzus persicae). As to the kind of experiment: Enhancement of activity by ammonium/phosphonium salts in combination with penetrants, Myzus persicae test. Type of data set: in vivo. How it is done: To produce a suitable preparation of active compound, 1 part by weight of active compound is mixed with the stated amounts of solvent and emulsifier, and the concentrate is diluted with water to the desired concentration. For application with ammonium or phosphonium salts and penetrants (rapeseed oil methyl ester 500 EW) these are added to the spray liquor in each case in a concentration of 1000 ppm.
as §1

A short description of data set [5]: Determination of the log P values (LC/MS, HCOOH method). The following applies: for log P: compounds of formula (I-2-b), single isomer as labelled, HPLC reversed-phase C18, HCOOH method. In kind it is physicochemical. As for the experimental part: Determination of the Log P Values (LC/MS, HCOOH Method):
The log P values given in the tables were determined in accordance with EEC Directive 79/831 Annex V.A8 by HPLC (High Performance Liquid Chromatography) using a reversed-phase column (C 18). Temperature: 55° C.
Mobile phases for determination in the acidic range (pH 3.4):
Mobile phase A: acetonitrile+1 ml formic acid/liter. Mobile phase B: water+0.9 ml formic acid/liter. Gradient: from 10% mobile phase A/90% mobile phase B to 95% mobile phase A/5% mobile phase B over 4.25 min. Calibration was carried out using unbranched alkan-2-ones (having 3 to 16 carbon atoms) with known log P values (determination of the log P values by the retention times using linear interpolation between two successive alkanones). The lambda max values were determined in the maxima of the chromatographic signals using the UV spectra from 200 nm to 400 nm.

The mark [6] stands for this setting: 4 ppm, +RME + AS (1000 ppm each).

Turning to `Cc1cc(C)c(C2=C(O)C3(CCC(OCC(F)(F)F)CC3)NC2=O)c(C)c1` (mixture of isomers) [Example I-1-a-5], the results for the “Kill rate/% after 6 days” value in data set [1] (+AS (1000 ppm)) and in data set [1] (without AS) were 99% and 5%, respectively.
Consider `Cc1ccc(-c2ccc(F)cc2)c(C)c1C1=C(O)C2(CCC(OCC(F)(F)F)CC2)NC1=O` (single isomer, unassigned) [Example I-1-a-3], for which the “Kill rate/% after 6 days” value is 0% in data set [2] (4 ppm, +AS (1000 ppm)); 5% in data set [2] (4 ppm, +RME (1000 ppm)); 25% in data set [2] (setting [6]); 0% in data set [2] (4 ppm, no additive); 5% in data set [2] (20 ppm, +AS (1000 ppm)); 10% in data set [2] (20 ppm, +RME (1000 ppm)). The “Kill rate/% after 6 days” value in data set [2] (20 ppm, +RME + AS (1000 ppm each)) stood at 90%; in data set [2] (20 ppm, no additive), 25%.
For the compound `CCc1cc(C)cc(Br)c1C1=C(O)C2(CCC(OCC(F)(F)F)CC2)NC1=O` (single isomer, unassigned) [Example I-1-a-7], the “10 days after application Summer wheat observed (%)” value is 40% with crop plants (12.5 g a.i./ha), 50% in the data set on crop plants (25 g a.i./ha), 60% with crop plants (50 g a.i./ha) and 60% in the data set on crop plants (100 g a.i./ha). Besides, the “28 days after application Summer wheat observed (%)” value in the data set with crop plants (12.5 g a.i./ha) was 10%; in the data set with crop plants (25 g a.i./ha), 20%; in the data set on crop plants (50 g a.i./ha), 30%; in the data set with crop plants (100 g a.i./ha), 40%.
As for `Cc1cc(Cl)cc(C)c1C1=C(O)[C@]2(CC[C@H](OCC(F)(F)F)CC2)NC1=O` [Example I-1-a-1], the “Kill rate/% after 6 days” value in data set [3] (+AS (1000 ppm)) is on record as 95%; in data set [3] (without AS), 25%; in data set [4] (0.8 ppm, +AS (1000 ppm)), 0%; in data set [4] (0.8 ppm, +RME (1000 ppm)), 0%; in data set [4] (0.8 ppm, +RME + AS (1000 ppm each)), 95%; in data set [4] (0.8 ppm, no additive), 0%. Moreover, the “Kill rate/% after 6 days” value in data set [4] (4 ppm, +AS (1000 ppm)) is given as 90%; in data set [4] (4 ppm, +RME (1000 ppm)), 99%; in data set [4] (setting [6]) it was 100%; in data set [4] (4 ppm, no additive), 95%.
On to `CCc1cc(C)cc(C)c1C1=C(OC(=O)C(C)C)[C@]2(CC[C@@H](OCC(F)(F)F)CC2)OC1=O` [Example I-2-b-2], for which, in data set [5] (reversed-phase C18 HPLC column, pH 3.4, HPLC, acidic range (pH 3.4)), the chromatographic logP was found to be 5.4.
On to `CCc1cc(C)cc(C)c1C1=C(OC(=O)C(C)C)[C@]2(CC[C@H](OCC(F)(F)F)CC2)OC1=O` [Example I-2-b-3], for which the “log P” value in data set [5] is listed as 5.44.
For `CCc1cc(C)cc(C)c1C1=C(OC(=O)C(C)C)C2(CCC(OCC(F)(F)F)CC2)OC1=O` (stereo not drawn) [Example I-2-b-4], the “log P” value in data set [5] is listed as 5.15.
For the compound `Cc1cc(C)c(C2=C(OC(=O)C(C)C)[C@]3(CC[C@H](OCC(F)(F)F)CC3)OC2=O)cc1C` [Example I-2-b-7], in data set [5], the “log P” value is reported as 5.14.
Regarding `Cc1cc(C)c(C2=C(OC(=O)C(C)C)C3(CCC(OCC(F)(F)F)CC3)OC2=O)cc1C` (stereo not drawn) [Example I-2-b-8], the “log P” value in data set [5] is on record as 4.87.
With `Cc1cc(C)c(C2=C(OC(=O)C(C)C)[C@]3(CC[C@H](OCC(F)(F)F)CC3)OC2=O)c(C)c1` [Example I-2-b-9], in data set [5], the “log P” value is 5.14.
Consider `Cc1cc(C)c(C2=C(OC(=O)C(C)C)C3(CCC(OCC(F)(F)F)CC3)OC2=O)c(C)c1` (stereo not drawn) [Example I-2-b-10], for which the log partition coefficient (log P) in data set [5] is reported as 4.88.
Take `Cc1ccc(-c2ccc(Cl)cc2)c(C)c1C1=C(OC(=O)C(C)C)[C@]2(CC[C@H](OCC(F)(F)F)CC2)OC1=O` [Example I-2-b-11]: the “log P” value in data set [5] worked out at 6.11.
In the case of `Cc1ccc(-c2ccc(Cl)cc2)c(C)c1C1=C(OC(=O)C(C)C)C2(CCC(OCC(F)(F)F)CC2)OC1=O` (stereo not drawn) [Example I-2-b-12], the “log P” value in data set [5] is 5.83.
The same measure, in the same setting: under `Cc1ccc(-c2ccc(Cl)cc2)cc1C1=C(OC(=O)C(C)C)[C@]2(CC[C@H](OCC(F)(F)F)CC2)OC1=O` [Example I-2-b-13] stands 5.84.
Turning to `Cc1ccc(-c2ccc(Cl)cc2)cc1C1=C(OC(=O)C(C)C)C2(CCC(OCC(F)(F)F)CC2)OC1=O` (stereo not drawn) [Example I-2-b-14], the “log P” value in data set [5] is 5.55.

Usually chromatographic logP stands for a lipophilicity value derived from retention on a column. Read a low chromatographic logP as a more hydrophilic compound. Usually log P stands for the decadic logarithm of the partition coefficient of the neutral form, usually between octanol and water. A low value points to a more hydrophilic compound.
